Laboratory results reported in patent publication US7297694B2, “Pyridylfurans and pyrroles as Raf kinase inhibitors” (SmithKline Beechum P.L.C., priority 2001, dated 2007).

Key:
[1] = biological target: B-Raf (Homo sapiens, UniProt P15056); assay: Fluorescence Anisotropy Kinase Binding Assay (Assay 1)
Source text: Fluorescence Anisotropy Kinase Binding Assay
The concentration of kinase enzyme should preferably be ≧1×Kf. The concentration of fluorescent ligand required will depend on the instrumentation used, and the fluorescent and physicochemical properties. The concentration used must be lower than the concentration of kinase enzyme, and preferably less than half the kinase enzyme concentration. A typical protocol is:
All compounds are serially diluted in DMSO, then by a one step dilution into buffer of comparison, 50 mM HEPES, […] pH7.5, 1 mM CHAPS, 10 mM MgCL2, for the assay.
B-Raf Enzyme concentration: 1 nM
Fluorescent ligand concentration: 0.5 nM
Test compound concentration: 0.5 nM -100 uM
Components incubated in 10 ul final volume in LJL HE 384 type B black microtitre plate until equilibrium reached (Over 3 h, up to 30 h)
Fluorescence anisotropy read in an LJL Acquest.
• Ki=dissociation constant for inhibitor binding • Kf=dissociation constant for fluorescent ligand binding
The fluorescent ligand is the following compound:
which is derived from 5-[2-(4-aminomethylphenyl)-5-pyridin-4-yl]-1H-imidazol4-yl]-2-chlorophenol and rhodamine green.

[2] = test system: Human diploid foreskin fibroblasts (HFF); assay: XTT 72 hr Growth Inhibition (Assay 3), HFF; assay type: cell-based; settings: Fibroblast, normal, B-Raf wt, Ras wt
Method: (§1) XTT 72 hr Growth Inhibition Protocol for Mammalian Cultured Cells (Assay 3)
(§2) Human diploid foreskin fibroblasts (HFF) or human colon carcinoma (Colo 201) cells were grown in Dulbecco's modified Eagle's medium (DMEM) (Invitrogen/Life Technologies) containing 10% fetal bovine serum (FBS) and the antibiotics penicillin (100 Units/ml) and streotomycin (100 micrograms/ml) (Invitrogen/Life Technologies). Growth was at 37° C. in humidified 5% CO2 incubators in 75 cm^2 plastic flasks. Cells were harvested using 0.25% trypsin/1 mM ethylenediaminetetraacetic acid (EDTA), resuspended in growth medium, and counted using a hemocytometer. Flat-bottomed 96-well plates were seeded with 2×10^3 cells/well in a volume of 200 ul from trypsinized exponentially growing cultures. To “blank” wells, growth medium was added with no additions. Cells were incubated overnight to permit attachment.
(§3) Next day, medium from wells that contained cells was replaced with 180 microliters of fresh medium. Appropriate dilutions of test compounds were added to the wells from stock soloutions of compound dissolved in dimethyl sulfoxide (DMSO); final DMSO concentration in all wells was 0.2%. […] Absorbance at 450 nm was then determined using a 96-well UV plate reader (Molecular Devices). Under these conditions, absorbance of untreated control cells at 450 nm was at least 1.0 optical density unit/ml. […]

[3] = test system: human colon carcinoma (Colo 201) cells; assay: XTT 72 hr Growth Inhibition (Assay 3), Colo201; assay type: cell-based; settings: Colorectal cancer, B-Raf ND, Ras ND
Method: as §1, §2, §3

[4] = test system: colon carcinoma (Colo 205); assay: Methylene Blue Growth Inhibition Assay (Assay 2), Colo205; assay type: cell-based; settings: Homo sapiens, Colorectal cancer, B-Raf V599E, Ras wt
[5] = test system: human melanoma A375P; assay: Methylene Blue Growth Inhibition Assay (Assay 2), A375P; assay type: cell-based; settings: B-Raf V599E, Ras wt
[6] = test system: human melanoma SKMEL3; assay: Methylene Blue Growth Inhibition Assay (Assay 2), SKMEL3; assay type: cell-based; settings: SK-MEL3, B-Raf V599E, Ras wt
[7] = test system: human melanoma SKMEL2; assay: Methylene Blue Growth Inhibition Assay (Assay 2), SKMEL2; assay type: cell-based; settings: SK-MEL-2, B-Raf wt, [Q6IR]N-Ras

Sequence of B-Raf (P15056 whole entry): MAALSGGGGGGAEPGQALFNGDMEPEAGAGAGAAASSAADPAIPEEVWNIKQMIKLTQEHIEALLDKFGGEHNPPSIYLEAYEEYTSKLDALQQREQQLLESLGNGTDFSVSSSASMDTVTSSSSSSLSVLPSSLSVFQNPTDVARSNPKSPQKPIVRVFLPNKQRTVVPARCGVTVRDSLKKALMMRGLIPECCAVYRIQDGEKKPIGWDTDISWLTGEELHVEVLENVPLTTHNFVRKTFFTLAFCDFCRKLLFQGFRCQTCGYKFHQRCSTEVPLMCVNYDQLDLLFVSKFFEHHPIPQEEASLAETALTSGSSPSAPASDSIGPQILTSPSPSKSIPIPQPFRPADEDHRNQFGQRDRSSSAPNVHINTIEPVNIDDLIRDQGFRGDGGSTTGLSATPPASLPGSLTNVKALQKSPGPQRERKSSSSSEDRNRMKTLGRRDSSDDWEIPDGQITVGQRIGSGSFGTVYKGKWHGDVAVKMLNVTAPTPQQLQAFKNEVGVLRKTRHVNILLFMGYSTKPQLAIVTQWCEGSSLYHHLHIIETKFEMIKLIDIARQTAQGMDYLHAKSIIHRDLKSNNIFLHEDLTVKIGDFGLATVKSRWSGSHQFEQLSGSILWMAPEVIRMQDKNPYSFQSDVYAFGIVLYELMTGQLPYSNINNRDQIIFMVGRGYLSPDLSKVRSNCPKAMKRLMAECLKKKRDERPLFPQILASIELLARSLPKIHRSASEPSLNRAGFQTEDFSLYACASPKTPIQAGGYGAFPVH

Kd [1]: 1 nM
IC50 [3]: 0.5 µM
IC50 [4]: 0.11 µM
IC50 [5]: 0.081 µM
IC50 [6]: 1 µM
IC50 [7]: 0.22 µM
Structure (SMILES): CN(C)CCOc1ccc(-c2cc(-c3ccc4c(c3)CCC4=NO)c(-c3ccncc3)o2)cc1 [Example 4, 5-{5-[4-(2-Dimethylaminoethoxy)phenyl]-2-pyridin-4yl-furan-3-yl}indan-1-one oxime]
IC50 [2]: 7.1 µM
